Experiments:
[1] = tested on: Plasmopara viticola; assay: D-1a) residual-protective action against Plasmopara viticola on vines; format: in vivo; details: Plasmopara viticola, 144 h; 200 ppm; test D-1a) residual-protective; vine seedlings; evaluated after 6 days; read-out: inhibit fungal infestations
Method: (§1) D-1: Action Against Plasmopara viticola on Vines
(§2) a) Residual-protective Action
Vine seedlings are sprayed at the 4- to 5-leaf stage with a spray mixture (0.02% active ingredient) prepared from a wettable powder formulation of the test compound. After 24 hours, the treated plants are infected with a sporangia suspension of the fungus. Fungus infestation is evaluated after incubation for 6 days at 95-100% relative humidity and +20° C.

[2] = tested on: Phytophthora; assay: D-3b) systemic action against Phytophthora on potato plants; format: in vivo; details: Phytophthora, 96 h; 200 ppm; test D-3b) systemic (soil watering); potato plants (Bintje); evaluated after 4 days; read-out: inhibit fungal infestations
Method: (§3) D-3: Action Against Phytophthora on Potato Plants
2-3 week old potato plants (Bintje variety) are watered with a spray mixture (0.02% active ingredient based on the volume of the soil) prepared from a wettable powder formulation of the test compound. […] After 48 hours, the treated plants are infected with a sporangia suspension of the fungus. Fungus infestation is evaluated after incubation of the infected plants for 4 days at 90-100% relative humidity and +20° C. Fungal infestation is effectively controlled with compounds of Tables 1 to 35. Compounds E1.003, E1.004, E1.009, E1.011, E1.012, E1.019, E1.020, E1.021, E1.022, E1.025, E1.031, E1.032, E1.033, E1.038, E1.045, E1.049, E1.050, E1.053, E1.085, E1.089, E1.090, E1.091, E1.102, E1.110, E1.112, E1.121, E1.125, E1.129 at 200 ppm inhibit fungal infestations in both tests D-3a) and D-3b) by 80-100%.

[3] = tested on: Phytophthora; assay: D-2a) residual-protective action against Phytophthora on tomato plants; format: in vivo; details: Phytophthora, 120 h; 200 ppm; test D-2a) residual-protective, evaluated after 5 days, read-out: inhibit fungal infestations
Method: (§4) D-2: Action Against Phytophthora on Tomato Plants
as §2
After a cultivation period of 3 weeks, tomato plants are sprayed with a spray mixture (0.02% active ingredient) prepared from a wettable powder formulation of the test compound. After 48 hours, the treated plants are infected with a sporangia suspension of the fungus. Fungus infestation is evaluated after incubation of the infected plants for 5 days at 90-100% relative humidity and +20° C.

[4] = tested on: Phytophthora; assay: D-2b) systemic action against Phytophthora on tomato plants; format: in vivo; details: Phytophthora, 96 h; 200 ppm; test D-2b) systemic (soil watering), evaluated after 4 days, read-out: inhibit fungal infestations
Method: as §4
After a cultivation period of 3 weeks, tomato plants are watered with a spray mixture (0.02% active ingredient based on the volume of the soil) prepared from a wettable powder formulation of the test compound. […] After 96 hours, the treated plants are infected with a sporangia suspension of the fungus. Fungus infestation is evaluated after incubation of the infected plants for 4 days at 90-100% relative humidity and +20° C. […] Compounds E1.003, E1.004, E1.009, E1.011, E1.012, E1.014, E1.018, E1.019, E1.020, E1.021, E1.022, E1.023, E1.025, E1.031, E1.032, E1.033, E1.038, E1.040, E1.044, E1.045, E1.049, E1.050, E1.053, E1.055, E1.057, E1.064, E1.085, E1.089, E1.090, E1.091, E1.102, E1.08, E1.110, E1.112, E1.121, E1.125, E1.129, E1.139 and E1.141 at 200 ppm inhibit fungal infestations in both tests D-2a) and D-2b) by 80-100%.

[5] = tested on: Plasmopara viticola; assay: D-1b) residual-curative action against Plasmopara viticola on vines; format: in vivo; details: Plasmopara viticola, 144 h; 200 ppm; test D-1b) residual-curative; vine seedlings; evaluated 6 days after infection; read-out: inhibit fungal infestations
Method: as §1
b) Residual-curative Action
Vine seedlings are infected at the 4- to 5-leaf stage with a sporangia suspension of the fungus. After incubation for 24 hours in a humidity chamber at 95-100% relative humidity and +20° C., the infected plants are dried and sprayed with a spray mixture (0.02% active ingredient) prepared from a wettable powder formulation of the test compound. After the spray coating has dried, the treated plants are placed in the humidity chamber again.
Fungus infestation is evaluated 6 days after infection.

[6] = tested on: Phytophthora; assay: D-3a) residual-protective action against Phytophthora on potato plants; format: in vivo; details: Phytophthora, 96 h; 200 ppm; test D-3a) residual-protective; potato plants (Bintje); evaluated after 4 days; read-out: inhibit fungal infestations
Method: as §3, §2
2-3 week old potato plants (Bintje variety) are sprayed with a spray mixture (0.02% active ingredient) prepared from a wettable powder formulation of the test compound. After 48 hours, the treated plants are infected with a sporangia suspension of the fungus. Fungus infestation is evaluated after incubation of the infected plants for 4 days at 90-100% relative humidity and +20° C.

SMILES	inhibition at 200 ppm [1] [%]	inhibition at 200 ppm [2] [%]	inhibition at 200 ppm [3] [%]	inhibition at 200 ppm [4] [%]	melting point [°C]	inhibition at 200 ppm [5] [%]	inhibition at 200 ppm [6] [%]
C#CCOc1ccc(CCNC(=O)C(OCC#C)c2ccc(C)cc2)cc1OC (stereo not drawn) [Compound E1.045, 2-(4-tolyl)-N-[2-(3-methoxy-4-prop-2-ynyloxy-phenyl)-ethyl]-2-prop-2-ynyloxy-acetamide]	80 to 100	80 to 100	80 to 100	80 to 100	81 to 82	80 to 100	80 to 100
C#CCOc1ccc(CCNC(=O)C(Cl)c2ccc(Br)cc2)cc1OC (stereo not drawn)	–	–	–	–	100 to 102	–	–
C#CCOc1ccc(CCNC(=O)C(OCC#C)c2ccc(Br)cc2)cc1OC (stereo not drawn) [Compound E1.022, 2-(4-bromo-phenyl)-N-[2-(3-methoxy-4-prop-2-ynyloxy-phenyl)-ethyl]-2-prop-2-ynyloxy-acetamide]	80 to 100	80 to 100	80 to 100	80 to 100	92 to 94	80 to 100	80 to 100
C#CCOc1ccc(CCNC(=O)C(OCC)c2ccc(Cl)cc2)cc1OC (stereo not drawn) [Compound E1.004, 2-(4-chloro-phenyl)-2-ethoxy-N-[2-(3-methoxy-4-prop-2-ynyloxy-phenyl)-ethyl]-acetamide]	80 to 100	80 to 100	80 to 100	80 to 100	–	80 to 100	80 to 100
